{
  "source": "patent US6498246B1",
  "about": "“Glycosaminoglycan derivatives and processes for preparing same” (Seikagaku Corporation, priority 1998, dated 2002)",
  "key": {"blood plasma [1]": {"tested_on": "blood plasma", "assay": "Measurement of TT (thrombin time)", "format": "biochemical, rat", "conditions": "for TT activity: concentration of standard heparin giving TT 100 seconds as percentage of that of the substance, standard heparin = 100; for TT activity/APTT activity: ratio of TT activity to APTT activity", "description": "For the measurement of TT, 100 μl of the blood plasma and 100 μl of each sample having varied concentration were put into a measuring cup and incubated at 37° C. for 1 minute. Thereafter, 100 μl of thrombin (10 U/ml) incubated in advance at 37° C. was added thereto, and the period of time from this point until generation of coagulation was measured using the blood coagulation automatic measuring apparatus. In Table 2, the final concentration of each of the inventive substance and standard heparin in the medium, by which the TT value becomes 100 seconds, was obtained to calculate the concentration of the standard heparin as percentage based on the concentration of the inventive substance, and this value (%) was used as the TT activity of the inventive substance."}, "[2]": {"tested_on": "primary culture cells of Wistar rat cerebral cortex cells", "assay": "Measurement of neurite outgrowth promoting activity", "format": "cell-based", "design": "neurite outgrowth promoting activity (in words, FIG. 3): dose or concentration left out as unconfirmed", "conditions": "for Neurite outgrowth promoting activity: 10 μg/ml, ratio of cerebral cortex cell masses showing neurite outgrowth after 2 days of culturing", "description": "A fetus was aseptically excised from a Wistar rat in the 17th day of pregnancy (purchased from Japan SLC). The brain was excised from the fetus, and the cerebral cortex was obtained by removing the cerebellum, mid-brain, inter-brain and meninges in an un-sulfated DMEM medium (prepared by dissolving 500 mg of anhydrous CaCl2, 0.25 mg of Fe(NO)3/9H2O, 1,000 mg of KCl, 193.3 mg of MgCl2, 9,250 mg of NaHCO3, 312.5 mg of NaH2PO4/H2O, 37.5 mg of Phenol Red, 275 mg of sodium pyruvate, 100 ml of MEM amino acid (No. 11130-051, manufactured by Gibco), 75 mg of L-glycine, 1,460 mg of L-glutamine, 105 mg of L-serine, 100 ml of MEM vitamin solution (No. 11120-052, manufactured by Gibco), 15,150 mg of NaCl and 11,250 mg of D-glucose in 2.5 L of sterilized distilled water and adjusting the solution to pH 7.2).\nCerebral cortexes obtained from 10 animals were finely sliced 100 times in both lengthwise and crosswise with a safety razor on a 60 mm dish, and the cerebral cortex slices were mixed twice with 10 ml of phosphate-buffered saline (PBS) and dispensed into a 50 ml capacity Falcon tube to which was subsequently added 11 ml of the un-sulfated DMEM medium. While uniformly suspending by gentle shaking, this was dispensed in 0.5 ml portions into wells of a 24 well plate (bottom area, 2 cm^2) which had been coated with 0.1% polyethylene imine. After 2 hours of the commencement of culturing, 100 μl of each sample was taken out, and 50 μl of PBS containing each substance to be tested having 10 time concentration of its final concentration and 50 μl of 400 μM chloric acid/un-sulfated DMEM medium were added. After 2 days of culturing at 37° C. under 5% CO2, 500 μl of 1% glutaraldehyde/PBS was gently over-layered to carry out 20 minutes of fixation at room temperature. After removing the supernatant by suction, 0.5 ml of PBS was slowly over-layered and then immediately removed by suction. A 20% Giemsa solution/potassium phosphate buffer was over-layered and allowed to stand for 2 hours at room temperature. After removing the supernatant by suction, 0.5 ml of PBS was added."}, "blood plasma [3]": {"tested_on": "blood plasma", "assay": "Measurement of APTT (activated partial thromboplastin time)", "format": "biochemical, rat", "conditions": "for APTT activity: concentration of standard heparin giving APTT 100 seconds as percentage of that of the substance, standard heparin = 100; for APTT (3 μg/ml): final concentration 3 μg/ml", "description": "For the measurement of APTT, blood was collected from rat lower aorta by 3.2% citric acid {fraction (1/10 )} volume and centrifuged at 1,000×g for 10 minutes, and 100 μl of the thus obtained blood plasma and 100 μl of each sample having varied concentration were put into a measuring cup and incubated at 37° C. for 1 minute. Thereafter, 100 μl of Actin (trade name, Yoshitomi Pharmaceutical) which had been incubated in advance at 37° C. was added thereto, and the incubation was continued for 2 minutes. Next, 100 μl of 0.02 M CaCl2 solution which had been incubated in advance at 37° C. was added thereto, and the period of time from this point until generation of coagulation was measured using a blood coagulation automatic measuring apparatus (KC-10A: manufactured by Amelung). Also, in Table 2, the final concentration of each of the inventive substance and standard heparin in the medium, by which the APTT value becomes 100 seconds, was obtained to calculate the concentration of the standard heparin as percentage based on the concentration of the inventive substance, and this value (%) was used as the APTT activity of the inventive substance."}, "[4]": {"assay": "Anticoagulation activity of the standard heparin", "conditions": "property of the standard heparin preparation"}, "mice": {"tested_on": "mice", "conditions": "mice (males and females), cited from earlier work"}, "[5]": {"tested_on": "sialidase (homogenate of NSC-34 cells)", "assay": "Measurement of sialidase activity with [3H]GM2 substrate", "format": "biochemical, mouse", "description": "Into a 15 ml capacity glass tube, 1 mg of GM2 ganglioside (manufactured by IATRON) was put, and dissolved by adding 0.8 ml of distilled water, followed by sonication. To the resulting solution, 0.1 ml of PdCl2 solution (a supernatant fraction obtained by adding PdCl2 to distilled water to a concentration of 25 mg/ml, followed by sonication for 30 minutes, and then centrifuging the mixture at 2,000×g) was added, followed by stirring. […]\nAfter the incubation, this was mixed with 5 ml of distilled water, applied to Sep-pak C18 cartridge column (manufactured by Waters) and eluted with methanol (3 ml) and then with chloroform : methanol (1:1 (v/v), 3 ml). The eluate was applied to DEAE-Sephadex A-25 column (manufactured by Pharmacia: 1 ml resin, swelled with methanol) and eluted with chloroform:methanol (1:1 (v/v), 3 ml), and then the eluate was dried to measure and compare radioactivity by a liquid scintillation counter. Radioactivity of a control in which 10 μl of distilled water was added instead of the standard heparin or inventive-substance was defined as 100% (FIG. 7). […]"}, "NSC-34 cells": {"tested_on": "NSC-34 cells", "assay": "Measurement of neural cell death inhibition activity", "format": "cell-based, mouse", "description": "That is, culturing was carried out by adding 0.09 ml of serum-free DMEM medium containing 1×10^5 of NSC-34 cells (received from Dr. Cashman (Toronto University): a mouse motor neuron-derived cultured cell strain) to a 96 well multi-plate which had been treated with 0.1% polyethylene imine in advance. Two hours after culturing, 10 μl of 100, 1,000 or 10,000 μg/ml aqueous solution of the inventive substance was added to respective wells (the final concentration in the medium is 10, 100 or 1,000 μg/ml). Thereafter, culturing was continued for 46 hours, and the number of survived cells was measured by the MTT process using a hemocytometer. By comparing with the number of survived cells after 2 hours of the culturing, the number of dead cells after 48 hours of the culturing of a control in which the inventive substance was not added was defined as 100%, and the ratio of difference from the number of dead cells when the inventive substance was added (the number of cells rescued from the cell death) was calculated as percentage (FIG. 6)."}},
  "note": "Like-named read-outs stand apart in the source and are kept apart here.",
  "data": [
    {"substance": "heparin sodium salt [Standard heparin, reference compound]", "values": [
      {"measurement": "TT activity", "setting": "blood plasma [1]", "result": 100, "unit": "%"},
      {"measurement": "TT activity/APTT activity", "setting": "blood plasma [1]", "result": 1},
      {"measurement": "Neurite outgrowth promoting activity", "setting": "[2]", "result": 15.0, "unit": "%"},
      {"measurement": "APTT activity", "setting": "blood plasma [3]", "result": 100, "unit": "%"},
      {"measurement": "APTT (3 μg/ml)", "setting": "blood plasma [3]", "result": 248, "unit": "s"},
      {"measurement": "anticoagulation activity", "setting": "[4]", "result": 160, "unit": "IU/mg"}
    ]},
    {"substance": "heparin", "values": [
      {"measurement": "LD50", "setting": "mice; intravenous injection", "result": "about 1,000 mg/kg"},
      {"measurement": "LD50", "setting": "mice; oral administration", "result": "≥ 5,000 mg/kg"},
      {"measurement": "LD50", "setting": "mice; subcutaneous or intraperitoneal administration", "result": "≥ 2,500 mg/kg"}
    ]},
    {"substance": "selectively 2-O-desulfated periodic acid oxidation-reduction heparin [Inventive substance]", "values": [
      {"measurement": "TT activity", "setting": "blood plasma [1]", "result": 0.37, "unit": "%"},
      {"measurement": "TT activity/APTT activity", "setting": "blood plasma [1]", "result": 0.185},
      {"measurement": "sialidase inhibition activity compared with standard heparin", "setting": "[5]; 10 μl of 10 μg/ml aqueous solution, 37° C., 1 hour (FIG. 7)", "result": "stronger activity to inhibit sialidase which degrades ganglioside than the standard heparin"},
      {"measurement": "sialidase inhibition activity compared with NeuAc2en", "setting": "[5]; 10 μl of 10, 100 or 1,000 μg/ml aqueous solution (FIG. 8)", "result": "stronger sialidase inhibition activity than that of NeuAc2en"},
      {"measurement": "neurite outgrowth promoting activity (in words, FIG. 3)", "setting": "[2]", "result": "sharp increase in the neurite outgrowth promoting activity"},
      {"measurement": "Neurite outgrowth promoting activity", "setting": "[2]", "result": 29.7, "unit": "%"},
      {"measurement": "APTT activity", "setting": "blood plasma [3]", "result": 2, "unit": "%"},
      {"measurement": "APTT (3 μg/ml)", "setting": "blood plasma [3]", "result": 32, "unit": "s"},
      {"measurement": "cells rescued from cell death", "setting": "NSC-34 cells; 100 μg/ml aqueous solution added, NSC-34 cells", "result": "about half the number of cells is rescued from cell death"},
      {"measurement": "activity to inhibit cell death and rescue the cells", "setting": "NSC-34 cells; 100 and 1,000 μg/ml aqueous solution added, NSC-34 cells, 48 hours, MTT", "result": "markedly inhibit cell death"},
      {"measurement": "neurite outgrowth promoting activity in the survived cells", "setting": "NSC-34 cells; survived NSC-34 cells", "result": "neurite outgrowth promoting activity was observed"}
    ]}
  ]
}
